Data: patent US20260042764A1, “COMPOSITIONS AND METHODS FOR INHIBITION OF KRAS” (TheRas, Inc., priority 2022, published 2026)

Assays:
[1] = molecular target: T1, Avi-KRAS WT (2-169) GTP/RAF1 RBD-3xFLAG (51-131) (Homo sapiens, UniProt P01116); test: Raf1-KRAS WT-GTP disruption HTRF assay (Biological Example 3); type: binding; conditions: KRAS WT, GTP-loaded
T1 construct: Avi-KRAS WT (2-169)
Method: (§1) Biological Example 3: Disrupting RAS-Effector Binding HTRF Assay
(§2) A protein:protein interaction (PPI) Homogeneous Time Resolved Fluorescence (HTRF) assay was used to determine the effectiveness of compounds in disrupting KRAS protein and effector (RAF1) binding.
(§3) The HTRF assay used the following reagents and proteins: (i) 50 nM Avi-KRAS G12D (2-169) GTP/RAF1 RBD-3xFLAG (51-131): (ii) 50 nM Avi-KRAS G12C (2-169) GTP/RAF1 RBD-3xFLAG (51-131): (iii) 50 nM Avi-KRAS G12V (2-169) GTP/RAF1 RBD-3xFLAG (51-131); (iv) 50 nM Avi-KRAS WT (2-169) GTP/RAF1 RBD-3xFLAG (51-131); and (v) 75 nM 3xFLAG-RAF1 RBD (51-131)-Avi. The assay buffer included: 50 mM Tris pH 7.5 (Invitrogen, 15567-027), 100 mM NaCl (Sigma, S5150-IL), 5 mM MgCl2 (Sigma, 63069), 0.1% BSA (Sigma, A7030), 0.01% Tween 20 (Sigma, P7949), 10% DMSO (Cell Signaling, 12611). The bead buffer included: 50 mM Tris pH 7.5 (Invitrogen, 15567-027), 0.01% Tween 20 (Sigma, P7949). An assay volume of 20 μL was used in a 384 well plate-low volume format. Compound titration: 30-0.005 μM, 3x dilution series.
(§4) The HTRF assay employed the following protocol:
(§5) Compounds were dispensed in assay plate (384-well, Grenier Bio-One #784075) using Echo (model 555) with dose response settings: 200 nL final volume, titration from 30 μM as a 10-point dilution series. Proteins and HTRF reagents were mixed and dispensed onto plates, 20 μL per well, and then incubated for 1 h at room temperature, with 700 rpm shaking.
(§6) Plates were analyzed on an Envision plate reader using the following setting: Excitation 320 nm, Bandwidth 75 nm; Emission 615 nm, Bandwidth 85 nm; Gain 100%; Flashes 100; Lag 60 μs. Data was reported as percentage of activity, with DMSO as 100%. Data was plotted and analyzed using Prism 8.
(§7) The biochemical Raf1-KRAS G12D/G12V/G12C/WT-GTP disruption assay IC50 of selected compounds described herein are shown in Table 12.

SW620 cells (KRAS G12V) = test: Cell-based pERK HTRF assay in SW620 cell (Biological Example 4); conditions: Homo sapiens, SW-620, SW620 (KRAS G12V) cells
Method in brief: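 This assay measures inhibition of ERK phosphorylation downstream of KRAS G12V in intact SW620 cells. Compounds are applied for 4 h over nine half-log concentrations starting at 1 μM, and pERK is quantified by HTRF.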

[2] = molecular target: T2, Avi-KRAS G12C (2-169) GTP/RAF1 RBD-3xFLAG (51-131) (Homo sapiens, UniProt P01116, G12C); test: Raf1-KRAS G12C-GTP disruption HTRF assay (Biological Example 3); type: binding; conditions: KRAS G12C, GTP-loaded
T2 construct: Avi-KRAS G12C (2-169)
T2 sequence (P01116 2-169 isoform P01116-2 G12C): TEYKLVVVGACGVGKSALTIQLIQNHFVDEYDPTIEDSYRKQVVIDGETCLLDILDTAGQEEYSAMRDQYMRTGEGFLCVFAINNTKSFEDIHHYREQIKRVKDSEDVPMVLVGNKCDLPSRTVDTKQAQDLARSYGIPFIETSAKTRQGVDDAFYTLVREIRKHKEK
Method: as §1, §2, §3, §4, §5, §6, §7

[3] = molecular target: T3, Avi-KRAS G12D (2-169) GTP/RAF1 RBD-3xFLAG (51-131) (Homo sapiens, UniProt P01116, G12D); test: Raf1-KRAS G12D-GTP disruption HTRF assay (Biological Example 3); type: binding; conditions: KRAS G12D, GTP-loaded
T3 construct: Avi-KRAS G12D (2-169)
T3 sequence (P01116 2-169 isoform P01116-2 G12D): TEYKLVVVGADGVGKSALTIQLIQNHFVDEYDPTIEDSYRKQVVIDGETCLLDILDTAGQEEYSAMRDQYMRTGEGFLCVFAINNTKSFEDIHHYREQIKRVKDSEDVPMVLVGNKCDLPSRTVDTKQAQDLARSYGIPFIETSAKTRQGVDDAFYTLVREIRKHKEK
Method: as §1, §2, §3, §4, §5, §6, §7

GP2d cells (KRAS G12D) = test: Cell-based pERK HTRF assay in GP2d cell (Biological Example 2); conditions: GP2d, GP2d (KRAS G12D) cells
Method in brief: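 Cells grown in DMEM with 10% FBS were exposed to compound for 60 min at 0.25% DMSO, using a 9-point half-log series starting at 1 μM or 100 nM. Lysates were then mixed with d2 and Eu cryptate antibodies for 4–24 h at room temperature, and pERK was read by HTRF.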

[4] = molecular target: T4, Avi-KRAS G12V (2-169) GTP/RAF1 RBD-3xFLAG (51-131) (Homo sapiens, UniProt P01116, G12V); test: Raf1-KRAS G12V-GTP disruption HTRF assay (Biological Example 3); type: binding; conditions: KRAS G12V, GTP-loaded
T4 construct: Avi-KRAS G12V (2-169)
T4 sequence (P01116 2-169 isoform P01116-2 G12V): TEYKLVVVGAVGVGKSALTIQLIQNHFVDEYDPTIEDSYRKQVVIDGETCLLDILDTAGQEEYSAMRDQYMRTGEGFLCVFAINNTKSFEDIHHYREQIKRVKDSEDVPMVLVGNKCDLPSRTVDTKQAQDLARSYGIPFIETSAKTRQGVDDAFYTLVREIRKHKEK
Method: as §1, §2, §3, §4, §5, §6, §7

T1 sequence (P01116 2-169 isoform P01116-2): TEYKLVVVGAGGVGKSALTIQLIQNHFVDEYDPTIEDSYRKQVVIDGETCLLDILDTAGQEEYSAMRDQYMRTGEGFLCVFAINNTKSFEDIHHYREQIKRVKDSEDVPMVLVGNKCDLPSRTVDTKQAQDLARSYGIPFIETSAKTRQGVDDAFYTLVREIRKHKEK

Row | Structure (SMILES) | IC50 [1] | IC50 (SW620 cells (KRAS G12V)) | IC50 [2] | IC50 [3] | IC50 (GP2d cells (KRAS G12D)) | IC50 [4]
1 | CN(C)C(=O)N1CC[C@H](N(CCF)c2nc(OC[C@@]34CCCN3C[C@H](F)C4)nc3c(F)c(-c4ccc(F)c5sc(N)c(C#N)c45)c(C(F)(F)F)cc23)C1 (atropisomer, axis not shown) [Compound 828] | 1 to 10 µM | 0.1 to 1 µM | 0.1 to 1 µM | 0.1 to 1 µM | < 0.1 µM | 0.1 to 1 µM
2 | COC(=O)N1CC[C@H](N(CCF)c2nc(OC[C@@]34CCCN3C[C@H](F)C4)nc3c(F)c(-c4ccc(F)c5sc(N)c(C#N)c45)c(C(F)(F)F)cc23)C1 (atropisomer, axis not shown) [Compound 829] | 1 to 10 µM | < 0.1 µM | 0.1 to 1 µM | 0.1 to 1 µM | < 0.1 µM | 0.1 to 1 µM
3 | CCN(c1nc(OC[C@@]23CCCN2C[C@H](F)C3)nc2c(F)c(-c3ccc(F)c4sc(N)c(C#N)c34)c(C(F)(F)F)cc12)[C@H]1CCN(C(=O)OC2CC(F)(F)C2)C1 (atropisomer, axis not shown) [Compound 830] | 0.1 to 1 µM | < 0.1 µM | 0.1 to 1 µM | 0.1 to 1 µM | < 0.1 µM | 0.1 to 1 µM
4 | CCN(c1nc(OC[C@@]23CCCN2C[C@H](F)C3)nc2c(F)c(-c3ccc(F)c4sc(N)c(C#N)c34)c(C(F)(F)F)cc12)[C@H]1CCN(C(=O)N2CC(F)(F)C2)C1 (atropisomer, axis not shown) [Compound 831] | 0.1 to 1 µM | < 0.1 µM | 0.1 to 1 µM | 0.1 to 1 µM | < 0.1 µM | 0.1 to 1 µM
5 | CCN(c1nc(OC[C@@]23CCCN2C[C@H](F)C3)nc2c(F)c(-c3ccc(F)c4sc(N)c(C#N)c34)c(C(F)(F)F)cc12)[C@H]1CCN(C(=O)c2coc(C)n2)C1 (atropisomer, axis not shown) [Compound 832] | 0.1 to 1 µM | < 0.1 µM | ≤ 0.1 µM | ≤ 0.1 µM | < 0.1 µM | ≤ 0.1 µM
6 | CCN(c1nc(OC[C@@]23CCCN2C[C@H](F)C3)nc2c(F)c(-c3ccc(F)c4sc(N)c(C#N)c34)c(C(F)(F)F)cc12)[C@H]1CCN(C(=O)C2COC2)[C@@H]1C (atropisomer, axis not shown) [Compound 833] | 0.1 to 1 µM | < 0.1 µM | 0.1 to 1 µM | ≤ 0.1 µM | < 0.1 µM | 0.1 to 1 µM
7 | CCN(c1nc(OC[C@@]23CCCN2C[C@H](F)C3)nc2c(F)c(-c3ccc(F)c4sc(N)c(C#N)c34)c(C(F)(F)F)cc12)[C@H]1CCN(C(=O)O[C@@H]2CO[C@H]3OCC[C@H]32)C1 (atropisomer, axis not shown) [Compound 834] | 0.1 to 1 µM | < 0.1 µM | ≤ 0.1 µM | ≤ 0.1 µM | < 0.1 µM | ≤ 0.1 µM
8 | CCN(c1nc(OC[C@@]23CCCN2C[C@H](F)C3)nc2c(F)c(-c3ccc(F)c4sc(N)c(C#N)c34)c(C(F)(F)F)cc12)[C@H]1CCN(C(=O)OCC2COC2)[C@@H]1C (atropisomer, axis not shown) [Compound 835] | 1 to 10 µM | < 0.1 µM | ≤ 0.1 µM | 0.1 to 1 µM | < 0.1 µM | 0.1 to 1 µM
9 | CCN(c1nc(OC[C@@]23CCCN2C[C@H](F)C3)nc2c(F)c(-c3ccc(F)c4sc(N)c(C#N)c34)c(C(F)(F)F)cc12)[C@H]1C[C@H]2[C@H](C)OC(=O)N2C1 (atropisomer, axis not shown) [Compound 836] | 0.1 to 1 µM | < 0.1 µM | 0.1 to 1 µM | 0.1 to 1 µM | < 0.1 µM | 0.1 to 1 µM
10 | CCN(c1nc(OC[C@@]23CCCN2C[C@H](F)C3)nc2c(F)c(-c3ccc(F)c4sc(N)c(C#N)c34)c(C(F)(F)F)cc12)[C@H]1C[C@H](COC)N(C(=O)OC2COC2)C1 (atropisomer, axis not shown) [Compound 837] | 0.1 to 1 µM | < 0.1 µM | 0.1 to 1 µM | 0.1 to 1 µM | < 0.1 µM | 0.1 to 1 µM
11 | CCN(c1nc(OC[C@@]23CCCN2C[C@H](F)C3)nc2c(F)c(-c3ccc(F)c4sc(N)c(C#N)c34)c(C(F)(F)F)cc12)[C@H]1C[C@H](COC)N(C(=O)N2CC(OC)C2)C1 (atropisomer, axis not shown) [Compound 839] | 0.1 to 1 µM | < 0.1 µM | 0.1 to 1 µM | 0.1 to 1 µM | < 0.1 µM | 0.1 to 1 µM
12 | CCN(c1nc(OC[C@@]23CCCN2C[C@H](F)C3)nc2c(F)c(-c3ccc(F)c4sc(N)c(C#N)c34)c(C(F)(F)F)cc12)[C@H]1C[C@H](COC)N(C(=O)[C@H]2CCO2)C1 (atropisomer, axis not shown) [Compound 840] | 0.1 to 1 µM | < 0.1 µM | 0.1 to 1 µM | 0.1 to 1 µM | < 0.1 µM | 0.1 to 1 µM
13 | CCN(c1nc(OC[C@@]23CCCN2C[C@H](F)C3)nc2c(F)c(-c3ccc(F)c4sc(N)c(C#N)c34)c(C(F)(F)F)cc12)[C@H]1C[C@H](C)N(C(=O)[C@@H]2C[C@@H]2F)C1 (atropisomer, axis not shown) [Compound 841] | 0.1 to 1 µM | < 0.1 µM | 0.1 to 1 µM | 0.1 to 1 µM | < 0.1 µM | 0.1 to 1 µM
14 | CCN(c1nc(OC[C@@]23CCCN2C[C@H](F)C3)nc2c(F)c(-c3ccc(F)c4sc(N)c(C#N)c34)c(C(F)(F)F)cc12)[C@H]1CCN(C(=O)[C@H]2C[C@@H](F)C2)C1 (atropisomer, axis not shown) [Compound 842] | 0.1 to 1 µM | < 0.1 µM | 0.1 to 1 µM | 0.1 to 1 µM | < 0.1 µM | 0.1 to 1 µM
15 | N#Cc1c(N)sc2c(F)ccc(-c3c(C(F)(F)F)cc4c(N(CCF)[C@H]5CCN(C(=O)[C@@H]6CC6(F)F)C5)nc(OC[C@@]56CCCN5C[C@H](F)C6)nc4c3F)c12 (atropisomer, axis not shown) [Compound 843] | 1 to 10 µM | < 0.1 µM | 0.1 to 1 µM | 0.1 to 1 µM | < 0.1 µM | 0.1 to 1 µM
16 | C/C=C/C(=O)N1C[C@@H](N(CC)c2nc(OC[C@@]34CCCN3C[C@H](F)C4)nc3c(F)c(-c4ccc(F)c5sc(N)c(C#N)c45)c(C(F)(F)F)cc23)C[C@@H]1COC (atropisomer, axis not shown) [Compound 845] | 0.1 to 1 µM | < 0.1 µM | 0.1 to 1 µM | 0.1 to 1 µM | < 0.1 µM | 0.1 to 1 µM
17 | CCN(c1nc(OC[C@@]23CCCN2C[C@H](F)C3)nc2c(F)c(-c3ccc(F)c4sc(N)c(C#N)c34)c(C(F)(F)F)cc12)[C@H]1CCN(C(=O)[C@H]2C[C@H](F)C2)C1 (atropisomer, axis not shown) [Compound 846] | 0.1 to 1 µM | < 0.1 µM | 0.1 to 1 µM | 0.1 to 1 µM | < 0.1 µM | 0.1 to 1 µM
